In patent publication US9682978B2, “2,6,7 substituted purines as HDM2 inhibitors” (Merck Sharp & Dohme Corp., priority 2013, dated 2017) one finds inhibition and IC50 data, which are given here for 26 compounds.

T1 sequence (Q00987 17-125): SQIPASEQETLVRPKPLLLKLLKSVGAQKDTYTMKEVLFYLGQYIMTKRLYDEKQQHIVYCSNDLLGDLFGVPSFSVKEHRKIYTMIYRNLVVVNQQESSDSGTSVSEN

The first experiment has as its target T1, HDM2 (Homo sapiens, UniProt Q00987).
T1 construct: Thioredoxin (N); made in house; host or cells: E. coli BL21(DE3)Rosetta (pET32a)
As to the kind of experiment: HDM2 FRET assay (inhibition of p53 peptide binding to HDM2). The note with it: Table 1, printed in the FRET IC50 column; at 1000 nM compound. From the text: Methods: An HDM2 FRET assay was developed to assess the compounds' inhibitory activity towards binding of p53 protein. A truncated version of HDM2 with residues 17 to 125 (containing p53 binding surface, Science (1994) 265, 346-355), with N-terminal His and Thioredoxin tag was generated in pET32a expression vector and expressed in E. coli strain BL21(DE3)Rosetta. Protein was purified using Ni-affinity chromatography, followed by size exclusion chromatography using Superdex 75 26/60 column. To assess inhibition of p53 binding to HDM2, a FITC labeled 8-mer peptide (sequence: Ac-Phe-Arg-Dpr-Ac6c-(6-Br)Trp-Glu-Glu-Leu-NH2; Anal Biochem. 2004 Aug. 1; 331(1):138-46) with strong affinity towards p53 binding pocket of HDM2 was used. The HDM2 assay buffer contained 1× Phosphate Buffered Saline (Invitrogen, Cat#14190), 0.01% BSA (Jackson ImmunoResearch, Cat#001-000-162), 0.01% Tween-20. In the 1× assay buffer recombinant HDM2 protein, peptide and Lumi4-Tb Cryptate-conjugate mouse anti-6×HIS antibody (cisbio, Cat#Tb61HISTLB) were added and transferred to ProxiPlate PLUS (PerkinElmer, Cat#6008269), containing compounds so that final DMSO concentration is 0.1%. Final concentrations of reagents in the assay wells are 0.5 nM HDM2, 0.25 nM anti HIS (Tb label) antibody and 3 nM peptide. After two hour incubation at room temperature in a humidified chamber plates were read on EnVision plate reader with the following settings: excitation: UV, […], two emission filters: 520 nm and 495 nm respectively. Ratio of em520/em495 was used to calculate % inhibition and to obtain IC50 with 4-parameter logistic equation.
IC50 DETERMINATIONS: Dose-response curves were plotted from the inhibition data, from 10 point serial dilutions of inhibitory compounds. Concentration of compound was plotted against em520/Cem495 ratio signal. To generate IC50 values, the dose-response curves were fitted to a standard sigmoidal curve and IC50 values were derived by nonlinear regression analysis. IC50 values in the above table are rounded to the nearest integer.
By inhibition is commonly meant the drop in the measured response relative to a control, in per cent. A lower inhibition goes with a weak effect. Take `CC1CCCN(c2nc(-c3noc(=O)[nH]3)nc3ncn(C[C@H]4CC[C@H](C)CC4)c23)C1` (stereo partly drawn) [Example 1.11, 3-{7-[(trans-4-methylcyclohexyl)methyl]-6-(3-methylpiperidin-1-yl)-7H-purin-2-yl}-1,2,4-oxadiazol-5(4H)-one]: at 1 µM the inhibition was 43%.

With `C[C@H]1CC[C@H](Cn2cnc3nc(-c4noc(=O)[nH]4)nc(N4CCCC(C(F)(F)F)C4)c32)CC1` (stereo partly drawn) [Example 1.10, 3-{7-[(trans-4-methylcyclohexyl)methyl]-6-[3-(trifluoromethyl)piperidin-1-yl]-7H-purin-2-yl}-1,2,4-oxadiazol-5(4H)-one], the inhibition at 1 µM is 37%.

Staying with this experiment, now noted: Table 1; truncated HDM2 residues 17 to 125, 0.5 nM HDM2, 3 nM FITC labeled 8-mer peptide, two hour incubation.
By IC50 is commonly meant the midpoint of a concentration-inhibition curve. Read a high IC50 as weaker potency in that assay. As to `C[C@@H](Nc1nc(C(=O)O)nc2ncn(Cc3cc4ccccc4s3)c12)C1CC1` [Example 1.8, 7-(1-benzothiophen-2-ylmethyl)-6-{[(1R)-1-cyclopropylethyl]amino}-7H-purine-2-carboxylic acid], the IC50 turned out to be 2420 nM.

In turn, `C[C@@H](Nc1nc(-c2nc(=O)n(C)[nH]2)nc2ncn(C[C@H]3CC[C@H](C)CC3)c12)C1CCC1` [Example 1.3, 5-(6-{[(1R)-1-cyclobutylethyl]amino}-7-[(trans-4-methylcyclohexyl)methyl]-7H-purin-2-yl)-2-methyl-1,2-dihydro-3H-1,2,4-triazol-3-one] registered an IC50 of 71.1 nM. In the case of `C[C@H]1CC[C@H](Cn2cnc3nc(-c4noc(=O)[nH]4)nc(Oc4cccc(Cl)c4)c32)CC1` [Example 1.5, 3-{6-(3-chlorophenoxy)-7-[(trans-4-methylcyclohexyl)methyl]-7H-purin-2-yl}-1,2,4-oxadiazol-5(4H)-one], the IC50 worked out at 392 nM. On the same count and under the same terms, then `C[C@@H](Nc1nc(C(=O)O)nc2ncn(Cc3ccc(C(F)(F)F)cc3)c12)C1CC1` [Example 1.1, 6-{[(1R)-1-cyclopropylethyl]amino}-7-[4-(trifluoromethyl)benzyl]-7H-purine-2-carboxylic acid], with 1140 nM; and `C[C@@H](Nc1nc(C(=O)NS(=O)(=O)N(C)C)nc2ncn(C[C@H]3CC[C@H](C)CC3)c12)C1CCC1` [Example 1.4, 6-{[(1R)-1-cyclobutylethyl]amino}-N-(dimethylsulfamoyl)-7-[(trans-4-methylcyclohexyl)methyl]-7H-purine-2-carboxamide], with 733 nM.

Still in this experiment, the particulars now being: Table 2; truncated HDM2 residues 17 to 125, 0.5 nM HDM2, 3 nM FITC labeled 8-mer peptide, two hour incubation.
In turn, `C[C@H]1CC[C@H](Cn2cnc3nc(-c4noc(=O)[nH]4)nc(-c4cc(Cl)cc(C(N)=O)c4)c32)CC1` [Example 2.13, 3-chloro-5-{7-[(trans-4-methylcyclohexyl)methyl]-2-(5-oxo-4,5-dihydro-1,2,4-oxadiazol-3-yl)-7H-purin-6-yl}benzamide] yielded an IC50 of 50.8 nM. Same read-out and setting: the result for `C[C@H]1CC[C@H](Cn2cnc3nc(-c4noc(=O)[nH]4)nc(-c4cc(Cl)cc(C(F)(F)F)c4)c32)CC1` [Example 2.11, 3-{6-[3-chloro-5-(trifluoromethyl)phenyl]-7-[(trans-4-methylcyclohexyl)methyl]-7H-purin-2-yl}-1,2,4-oxadiazol-5(4H)-one] reads 172 nM. Turning to `C[C@H]1CC[C@H](Cn2cnc3nc(-c4noc(=O)[nH]4)nc(-c4cc(Cl)cc(N5CCCC5)c4)c32)CC1` [Example 2.18, 3-{6-(3-chloro-5-pyrrolidin-1-ylphenyl)-7-[(trans-4-methylcyclohexyl)methyl]-7H-purin-2-yl}-1,2,4-oxadiazol-5(4H)-one], the IC50 was 331 nM. Same read-out and setting: then `COc1cc(Cl)cc(-c2nc(-c3noc(=O)[nH]3)nc3ncn(C[C@H]4CC[C@H](C)CC4)c23)c1` [Example 2.6, 3-{6-(3-chloro-5-methoxyphenyl)-7-[(trans-4-methylcyclohexyl)methyl]-7H-purin-2-yl}-1,2,4-oxadiazol-5(4H)-one], with 312 nM; and `C[C@H]1CC[C@H](Cn2cnc3nc(-c4noc(=O)[nH]4)nc(-c4cccc(Cl)c4)c32)CC1` [Example 2.1, 3-{6-(3-chlorophenyl)-7-[(trans-4-methylcyclohexyl)methyl]-7H-purin-2-yl}-1,2,4-oxadiazol-5(4H)-one], with 53.4 nM; and `Cc1ncc(Cl)cc1-c1nc(-c2noc(=O)[nH]2)nc2ncn(C[C@H]3CC[C@H](C)CC3)c12` [Example 2.21, 3-{6-(5-chloro-2-methylpyridin-3-yl)-7-[(trans-4-methylcyclohexyl)methyl]-7H-purin-2-yl}-1,2,4-oxadiazol-5(4H)-one], with 87.8 nM. The compound `C[C@H]1CC[C@H](Cn2cnc3nc(-c4noc(=O)[nH]4)nc(-c4cc(Cl)cnc4O)c32)CC1` [Example 2.16, 3-{6-(5-chloro-2-hydroxypyridin-3-yl)-7-[(trans-4-methylcyclohexyl)methyl]-7H-purin-2-yl}-1,2,4-oxadiazol-5(4H)-one] registered an IC50 of 87.6 nM. The same measure, in the same setting: then `COC(=O)c1cc(C)cc(-c2nc(-c3noc(=O)[nH]3)nc3ncn(C[C@H]4CC[C@H](C)CC4)c23)c1` [Example 2.19, methyl 3-methyl-5-{7-[(trans-4-methylcyclohexyl)methyl]-2-(5-oxo-4,5-dihydro-1,2,4-oxadiazol-3-yl)-7H-purin-6-yl}benzoate], with 579 nM; and `C[C@H]1CC[C@H](Cn2cnc3nc(C(=O)O)nc(-c4cncc(Cl)c4)c32)CC1` [Example 2.20, 6-(5-chloropyridin-3-yl)-7-[(trans-4-methylcyclohexyl)methyl]-7H-purine-2-carboxylic acid], with 213 nM. Turning to `C[C@H]1CC[C@H](Cn2cnc3nc(-c4noc(=O)[nH]4)nc(-c4cc(Cl)cc(C#N)c4)c32)CC1` [Example 2.4, 3-chloro-5-{7-[(trans-4-methylcyclohexyl)methyl]-2-(5-oxo-4,5-dihydro-1,2,4-oxadiazol-3-yl)-7H-purin-6-yl}benzonitrile], the IC50 worked out at 413 nM. `COCOc1cc(Cl)cc(-c2nc(-c3noc(=O)[nH]3)nc3ncn(C[C@H]4CC[C@H](C)CC4)c23)c1` [Example 2.14, 3-{6-[3-chloro-5-(methoxymethoxy)phenyl]-7-[(trans-4-methylcyclohexyl)methyl]-7H-purin-2-yl}-1,2,4-oxadiazol-5(4H)-one] showed an IC50 of 41.7 nM. Turning to `C[C@H]1CC[C@H](Cn2cnc3nc(-c4noc(=O)[nH]4)nc(-c4cc(O)cc(Cl)c4)c32)CC1` [Example 2.7, 3-{6-(3-chloro-5-hydroxyphenyl)-7-[(trans-4-methylcyclohexyl)methyl]-7H-purin-2-yl}-1,2,4-oxadiazol-5(4H)-one], the IC50 amounted to 111 nM.

The experiment is the same for the next values; noted with them: Table 3; truncated HDM2 residues 17 to 125, 0.5 nM HDM2, 3 nM FITC labeled 8-mer peptide, two hour incubation.
The compound `C=C1CCC(Cn2cnc3nc(-c4noc(=O)[nH]4)nc(N[C@H](C)C4CCC4)c32)CC1` [Example 3.7, 3-(6-{[(1R)-1-cyclobutylethyl]amino}-7-[(4-methylidenecyclohexyl)methyl]-7H-purin-2-yl)-1,2,4-oxadiazol-5(4H)-one] showed an IC50 of 543 nM. Still for that read-out and setting: then `CCC1CCC(Cn2cnc3nc(C(=O)O)nc(N[C@H](C)C4CCC4)c32)C1` (single isomer, unassigned) [Example 3.12], with 146 nM; and `CCC1CCC(Cn2cnc3nc(C(=O)O)nc(N[C@H](C)C4CCC4)c32)C1` (single isomer, unassigned) [Example 3.13], with 510 nM. Same read-out and setting: the result for `C[C@@H]1CC[C@@H](Cn2cnc3nc(-c4noc(=O)[nH]4)nc(N[C@H](C)C4CCC4)c32)CC1(F)F` (stereo in doubt) [Example 3.5, 3-(6-{[(1R)-1-cyclobutylethyl]amino}-7-{[(trans)-3,3-difluoro-4-methylcyclohexyl]methyl}-7H-purin-2-yl)-1,2,4-oxadiazol-5(4H)-one] reads 198 nM. In the case of `CC([C@H]1CC[C@H](C)CC1)n1cnc2nc(-c3noc(=O)[nH]3)nc(N[C@H](C)C3CCC3)c21` (stereo partly drawn) [Example 3.18, 3-(6-{[(1R)-1-cyclobutylethyl]amino}-7-[1-(trans-4-methylcyclohexyl)ethyl]-7H-purin-2-yl)-1,2,4-oxadiazol-5(4H)-one], the IC50 amounted to 17 nM.

The compound `C[C@@H]1CC[C@@H](Cn2cnc3nc(-c4noc(=O)[nH]4)nc(-c4cccc(Cl)c4)c32)CC1(F)F` (single isomer, unassigned) [Example 3.16, 3-[6-(3-chlorophenyl)-7-{[(trans)-3,3-difluoro-4-methylcyclohexyl]methyl}-7H-purin-2-yl]-1,2,4-oxadiazol-5(4H)-one] gave an IC50 of 848 nM. Compound `CC([C@H]1CC[C@H](C)CC1)n1cnc2nc(-c3noc(=O)[nH]3)nc(N[C@H](C)C3CCC3)c21` (single isomer, unassigned) [Example 3.17] returned an IC50 of 421 nM.
